In US7402606B2, “Derivatives of 1-(oxoaminoacetyl) pentylcarbamate as cathepsin K inhibitors for the treatment of bone loss” (SmithKline Beecham Corporation, priority 2002, dated 2008):

The compounds below were run against T1, human cathepsin K (Homo sapiens, UniProt P43235) (assay: Cathepsin K inhibition assay, human recombinant enzyme, fluorogenic substrate Cbz-Phe-Arg-AMC). Details: Table 1, human cathepsin K; read-out: h Cat K IC50.
T1 construct: The proform of cathepsin K was converted to mature cathepsin K by brief exposure to pH 4; made in house; host or cells: baculovirus; Trichoplusia ni High Five cells (virus raised in Sf-9)
T1 sequence (P43235 115-329): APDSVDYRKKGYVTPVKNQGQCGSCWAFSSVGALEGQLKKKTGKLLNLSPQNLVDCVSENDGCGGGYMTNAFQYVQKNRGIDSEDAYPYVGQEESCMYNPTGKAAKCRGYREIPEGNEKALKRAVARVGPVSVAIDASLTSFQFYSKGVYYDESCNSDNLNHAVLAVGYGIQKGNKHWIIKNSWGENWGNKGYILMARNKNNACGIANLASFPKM
Format: biochemical
Experimental: All assays for cathepsin K were carried out with human and rat recombinant enzyme. Assays for cathepsins S ? V were also carried out with human recombinant enzyme. Assays for human cathepsins B, H, and L were carried out with enzyme, purchased from Athens Research and Technology, Inc., prepared from human liver tissue. […] A stock substrate solution of Cbz-Phe-Arg-AMC was prepared at a concentration of 50 mM in dimethyl sulfoxide. This substrate was diluted into the assay for a final substrate concentration of 10 μM in the rat cathepsin K, human cathepsin K, and human cathepsin B assays; a final substrate concentration of 5 μM in the human cathepsin L assay; and a final substrate concentration of 2 μM in the human cathepsin V assay.
All assays contained 10% dimethyl sulfoxide. […] All assays were conducted at 30° C. Product fluorescence (excitation at 360 nm; emission at 440 nm, (except cathepsin H which used excitation at 340 nm; emission at 420 nm)) was monitored with a PerSeptive Biosystems Cytofluor II fluorescence plate reader. Product progress curves were generated over 2.3 h monitoring the formation of 7-amino-4-methylcoumarin product (or β-naphthalamide for cathepsin H).
Human and rat Cathepsin K:
Two liters of Spodoptera frugiperda (Sf-9) cells (ATCC) were grown in Grace's Supplemented medium (Life Technologies) supplemented with 2 g/L glucose, 10% fetal bovine serum (HyClone) and 0.1% pluronic F-68 (Life Technologies). […] The cells continued to grow for 72 h post-infection, before the virus was harvested by centrifugation at 1400×g for 30 min.
One and one-half liters of Trichoplusia ni (T. ni) High Five (™) cells [JRH Biosciences, Woodland, Calif. […] The cells were grown for 24 h at 28° C., 50 RPM, and 50% dissolved oxygen. […] Media were separated from cells at a rate of 1 L/min using the Centritech 100 ™ continuous-flow centrifuge (DuPont) operating at 200×g.
Protein Purification: Media (human and rat) were filtered through a Whatman 3 filter, and then loaded onto a 25 mL. Poros HS II (26 mm×47 mm) cation exchange column equilibrated in 25 mM sodium acetate at pH 5.5 (equilibration buffer). The column was washed until the absorbance reached the baseline value, and then the protein was eluted with a linear gradient from 0-2 M sodium chloride in the equilibration buffer. Column fractions were analyzed by SDS-PAGE, N-terminal sequencing, and mass spectrometry. Fractions containing the proform of cathepsin K were pooled and frozen at −80° C. The proform was concentrated in an Amicon Centriprep 10 and fractionated with a Superdex 75 column (26 mm×600 mm, Pharmacia) equilibrated in 400 mM sodium chloride, 25 mM sodium acetate at pH 5.5.
Cathepsin K Activation: The proform of cathepsin K was converted to mature cathepsin K by brief exposure to pH 4 in the presence of 5 mM L-cysteine. Typically, 5 mM L-cysteine was added to 10 mL of approximately 1 mg/mL procathepsin K. One mL of this solution was diluted ten-fold into 450 mM sodium acetate at pH 4.0 containing 5 mM L-cysteine. This solution was reacted at 23° C. for 2 min before neutralization with 2 mL, 1.8 M sodium acetate at pH 6.0. The neutralized sample was added to the remaining 9 mL of procathepsin K. The mixture was incubated at 4° C. for 2-3 days. The activated cathepsin K was chromatographed on a Poros HS II column as described above.
Potential inhibitors were evaluated using the progress curve method. Assays were carried out in the presence of variable concentrations of test compound. Reactions were initiated by addition of buffered solutions of inhibitor and substrate to enzyme. Data analysis was conducted according to one of two procedures depending on the appearance of the progress curves in the presence of inhibitors. […] Ki values were calculated from IC50 values using equation 2 assuming a competitive model.
Compound CCCC[C@H](NC(=O)O[C@@H]1CN(C(=O)OCCc2ccccc2)CC1(C)C)C(=O)C(=O)N[C@H](C)c1ccccc1 [Example 45, 2-Phenylethyl (4S)-3,3-dimethyl-4-[({[(1S)-1-(oxo {[(1R)-1-phenylethyl]amino}acetyl)pentyl]amino}carbonyl)oxy]-1-pyrrolidinecarboxylate] has an IC50 of 10 to 100 nM. CCCC[C@H](NC(=O)O[C@@H]1CN(C(=O)OCc2cn(-c3ccccc3)nn2)CC1(C)C)C(=O)C(=O)N[C@H](C)c1ccccc1 [Example 46, (1-Phenyl-1H-1,2,3-triazol-4-yl)methyl (4S)-3,3-dimethyl-4-[({[(1S)-1-(oxo{[(1R)-1-phenylethyl]amino}acetyl)pentyl]amino}carbonyl)oxy]-1-pyrrolidinecarboxylate] was tested, and the IC50 was 1 to 10 nM. In the case of CCCC[C@H](NC(=O)O[C@@H]1CN(C(=O)OCCN2CCCC2=O)CC1(C)C)C(=O)C(=O)N[C@H](C)c1ccccc1 [Example 47, 2-(2-Oxo-1-pyrrolidinyl)ethyl (4S)-3,3-dimethyl-4-[({[(1S)-1-(oxo{[(1R)-1-phenylethyl]amino}acetyl)pentyl]amino}carbonyl)oxy]-1-pyrrolidinecarboxylate], the IC50 is reported as 10 to 100 nM. CCCC[C@H](NC(=O)O[C@@H]1CN(C(=O)OCC2CCCCO2)CC1(C)C)C(=O)C(=O)N[C@H](C)c1ccccc1 (stereo partly drawn) [Example 48, Tetrahydro-2H-pyran-2-ylmethyl (4S)-3,3-dimethyl-4-[({[(1S)-1-(oxo{[(1R)-1-phenylethyl]amino}acetyl)pentyl]amino}carbonyl)oxy]-1-pyrrolidinecarboxylate] gave an IC50 of 100 to 1000 nM. For CCCC[C@H](NC(=O)O[C@@H]1CN(C(=O)OCC2CCOC2)CC1(C)C)C(=O)C(=O)N[C@H](C)c1ccccc1 (stereo partly drawn) [Example 49, Tetrahydro-3-furanylmethyl (4S)-3,3-dimethyl-4-[({[(1S)-1-(oxo {[(1R)-1-phenylethyl]amino}acetyl)pentyl]amino}carbonyl)oxy]-1-pyrrolidinecarboxylate], the IC50 was 10 to 100 nM. For CCCC[C@H](NC(=O)O[C@@H]1CN(C(=O)OCc2c(C)noc2-c2cc(C)on2)CC1(C)C)C(=O)C(=O)N[C@H](C)c1ccccc1 [Example 50, [3-Methyl-5-(5-methyl-isoxazol-3-yl)-4-isoxazolyl]methyl (4S)-3,3-dimethyl-4-[({[(1S)-1-(oxo{[(1R)-1-phenylethyl]amino}acetyl)pentyl]amino}carbonyl)oxy]-1-pyrrolidinecarboxylate], the IC50 was 10 to 100 nM. With CCCC[C@H](NC(=O)O[C@@H]1CN(C(=O)OCCc2scnc2C)CC1(C)C)C(=O)C(=O)N[C@H](C)c1ccccc1 [Example 51, 2-(4-Methyl-1,3-thiazol-5-yl)ethyl (4S)-3,3-dimethyl-4-[({[(1S)-1-(oxo {[(1R)-1-phenylethyl]amino}acetyl)pentyl]amino}carbonyl)oxy]-1-pyrrolidinecarboxylate] the IC50 was 1 to 10 nM. CCCC[C@H](NC(=O)O[C@@H]1CN(C(=O)OCc2cc(C)on2)CC1(C)C)C(=O)C(=O)N[C@H](C)c1ccccc1 [Example 52, (5-methyl-3-isoxazolyl)methyl (4S)-3,3-dimethyl-4-[({[(1S)-1-(oxo{[(1R)-1-phenylethyl]amino}acetyl)pentyl]amino}carbonyl)oxy]-1-pyrrolidinecarboxylate] showed an IC50 of 10 to 100 nM. For CCCC[C@H](NC(=O)O[C@@H]1CN(C(=O)OCc2c(-c3c(Cl)cccc3Cl)noc2C)CC1(C)C)C(=O)C(=O)N[C@H](C)c1ccccc1 [Example 53, [3-(2,6-Dichlorophenyl)-5-methyl-4-isoxazolyl]methyl (4S)-3,3-dimethyl-4-[({[(1S)-1-(oxo{[(1R)-1-phenylethyl]amino}acetyl)pentyl]amino}carbonyl)oxy]-1-pyrrolidinecarboxylate], the IC50 was 1 to 10 nM. For CCCC[C@H](NC(=O)O[C@@H]1CN(C(=O)OCc2cccc(-c3ccccc3)c2C)CC1(C)C)C(=O)C(=O)N[C@H](C)c1ccccc1 [Example 54, (2-Methyl[1,1′-biphenyl]-3-yl)methyl (4S)-3,3-dimethyl-4-[({[(1S)-1-(oxo{[(1R)-1-phenylethyl]amino}acetyl)pentyl]amino}carbonyl)oxy]-1-pyrrolidinecarboxylate], the IC50 was 10 to 100 nM.
